The subject of data set [1] is AKT. Kind of data set: PR1P induced AKT phosphorylation in Beas-2B cells with or without SU5416 (FACS). The following applies: then PR1P (125 μM) 20 min. The format is cell-based, human. As for the experimental part: (§1) It was previously shown in part that PR1P binds VEGF, increases VEGF binding to VEGF receptors, and induces downstream VEGF signaling including the phosphorylation of VEGF receptor 2 and AKT. To determine whether PR1P mediation of VEGF signaling requires VEGFR2 activation, lung epithelial cells (Beas-2B) were treated with the specific VEGFR2 inhibitor SU5416 ([…]) or with vehicle alone as control for 24 hours and then exposed PR1P (125 μM) or vehicle for 20 min. Cells were then harvested and levels of phosphorylated VEGFR2 and AKT were assessed using FACS. […] These findings strongly support the notion that PR1P upregulation of VEGF signaling requires VEGFR-2 activation.
(§2) Serum-starved monolayers of Beas-2B cells were incubated in the presence or absence of SU5416 (20 μM) for 24 h on 10 cm tissue culture plates. After single washing with PBS, the cells were treated with 3 ml of starvation media in the presence of PR1P (125 […]) or vehicle as control for 20 minutes at 37° C. At the conclusion of the experiments, cells were prepared for FACS analysis using standard procedures. Cells were analyzed for levels of phosphorylated VEGFR2 and AKT using anti pAKT and pVEGFR2 antibodies (Cell signaling, Danvers MA).

The test system of data set [2] is VEGFR2. Kind of data set: PR1P induced VEGFR2 phosphorylation in Beas-2B cells with or without SU5416 (FACS). It counts as cell-based, human. The following applies: then PR1P (125 μM) 20 min. The protocol: as §1, §2
Data set [3] is described as follows: Observation of ill effects during inhalation studies. It counts as in vivo, mouse. The following applies: 24-hour experimental period, delivered directly into the lungs; data not shown. The text has this: These and similar findings led many to believe that over-expression of VEGF in the lung could be curative in emphysema (54), however, enthusiasm for this type of therapy is tempered by clinical trials using systemic VEGF therapy (41) that were complicated by systemic and pulmonary toxicities including increased vascular permeability leading to hypotension (55) and tissue and lung edema (56, 57). […] The results outlined herein raise the possibility that a strategy to use PR1P to upregulate endogenous VEGF signaling in vivo may avoid toxicity seen with alternative and more conventional forms of VEGF therapy. […] PR1P could be used to avoid complications associated with constitutive VEGF over-expression or systemic VEGF treatment by stabilizing and potentiating the signaling of local endogenous VEGF. It will be important to clearly delineate the fate and pharmacokinetics of PR1P in evaluating its toxicity potential. Because of its small size, PR1P could also be more easily packaged as cargo inside nanometer or micron sized storage vehicles for tissue or cell targeted therapy.
8 week old female C3H/HENCrl (Charles River Laboratories, Cambridge, MA) mice (22±2 g) were placed in a whole-animal nebulization chamber (14×5×8 cm) and allowed to spontaneously inhale (20 min) nebulized LPS (Salmonela enterica, Sigma-Aldrich, St. Louis, MO), PR1P, scrambled peptide (SP), or VEGF. […]

Data set [4] deals with VEGFR-2. In words: Lung cell VEGFR-2 phosphorylation after inhalation of nebulized peptide (FACS). The following applies: live mice, nebulized (20 min), lung cells harvested 30 minutes after end of inhalation; compared to SP. The format is in vivo, mouse. The text has this: VEGF mediates cell survival and apoptosis pathways via binding to and activation of VEGFR-2 and signaling through the PI3K/AKT pathway (13). […] To evaluate the effect of PR1P on VEGF signaling in the lung, both FACS and Western blotting were used to measure the levels of phosphorylated VEGFR-2 and AKT in the human lung respiratory epithelial cell line BEAS-2B in response to treatment with PR1P, scrambled peptide (SP), or VEGF. […] To determine whether PR1P also effectively modulated VEGF signaling in the lungs of animals (i.e. whether PR1P was bioactive in-vivo) live mice were treated with nebulized VEGF, SP or PR1P (20 min) and performed FACS analysis on lung cells harvested from treated animals 30 minutes after the end of inhalation. […]
Lungs were harvested from treated animals, cut into small pieces using surgical scissors and suspended and gently stirred in 3 ml serum free BEBM containing Liberase (2 mg ml, Sigma-Aldrich, St. Louis, MO). […] Cells were subsequently washed with FACS media and analyzed by a flow cytometer (BD Biosciences, San Jose, CA, USA) running FlowJo 7.2.2, software (Tomy Digital Biology. Tokyo, Japan).

For data set [5] the following is noted: in vivo; cited from earlier work.

No end group written: not given here.

Take `Cc1cc(C)c(/C=C2\C(=O)Nc3ccccc32)[nH]1` [SU5416]: the “effect of PR1P on the phosphorylation level of AKT in presence of inhibitor” value in data set [1] was “significantly reduced”. Further, the “effect of PR1P on the phosphorylation level of VEGFR-2 in presence of inhibitor” value in data set [2] is on record as “significantly reduced”.

Regarding DRVQRQTTTVVA [PR1P, DRVQRQTTTVVA], the “ill effects from therapy” value in data set [3] is listed as “ill effects were not observed”.

As for VEGF, the “lung cell VEGFR-2 phosphorylation” value in data set [4] is listed as “increased pVEGFR2”.

Regarding “elastase: porcine pancreatic elastase (PPE) used intra-tracheally to induce emphysema phenotype”, the “half-life of exogenous elastase administered into the animal lungs” value in data set [5] is reported as “approximately 50 minutes”.

(Values after patent US20250134949A1, “PROMININ-1 PEPTIDE FOR TREATING LUNG INJURY” (Children's Medical Center Corporation, priority 2017, published 2025).)
